Measured values taken from PubChem BioAssay AID179 (DTP/NCI, 2004).
Values joined by “and” are separate entries in the source; they are usually repeats but may differ in a detail not shown here. Identical values can stand only once. Active and inactive are the calls of the source.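 How the source made its calls: active means compounds giving half or more protection of infected cells from virus-caused growth loss, again on retest; inactive means the rest.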

Test system: CEM cells HIV-1 protection, formazan growth assay
Assay: NCI AIDS Antiviral Assay
Conditions: for IC50: measured here: growth of uninfected CEM cells
Procedure, shortened: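 Steps: treat uninfected and HIV-1-infected human CEM cells at five drug levels; quantify growth by soluble formazan; retest any compound reaching 50% protection; classify actives from the retest.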

Compound	EC50	IC50	outcome
O=Cc1cc2c(cc1-c1cc3c(cc1C=O)OCO3)OCO2	> 107 µM	> 107 µM	
COc1cc(C(=O)C/C(CCC(=O)Nc2ccc(Cl)cc2Cl)=N/Nc2nnc(C)n2N)ccc1O	> 50.1 µM	> 50.1 µM	
COc1cc2oc(=O)cc(C)c2cc1OC	> 200 µM	> 200 µM	
O=C(Nc1ccc(C2=NCCN2)cc1)Nc1cccc(C(=O)Nc2ccc(C3=NCCN3)cc2)c1	12.9 µM	74.1 µM	
CC(C)CCC1(O)O[C@H]2C[C@H]3[C@@H]4CCC5CC(=O)C=C[C@]5(C)[C@H]4CC[C@]3(C)[C@H]2[C@@H]1C (stereo partly specified)	> 151 µM	21.4 µM	
Cc1c(O)c2cccc(-c3ccccc3)c2oc1=O	> 200 µM	132 µM	
Cc1sc2nc3n(c(=O)c2c1C)N=C(c1ccc(Cl)cc1)CS3	> 200 µM	> 200 µM	
O=C(O)c1c(O)ccc(O)c1C(=O)Nc1ccc(/C=C/c2ccc(NC(=O)c3c(O)ccc(O)c3C(=O)O)cc2S(=O)(=O)O)c(S(=O)(=O)O)c1	17.8 µM	> 200 µM	
Cc1cn([C@@H]2C[C@H](CO)[C@@H]2O)c(=O)[nH]c1=O	> 200 µM	> 200 µM	
COCP1(=S)OC(C)CCN1C(C)C (stereo unspecified)	> 200 µM	112 µM	
COc1ccc(C2NC(=O)N3C(c4ccc(OC)c(OC)c4)NC(=O)N23)cc1OC (stereo unspecified)	> 200 µM	> 200 µM	
CC1=NNC(=O)C1C1CC(c2c[nH]c3ccccc23)=NN(c2ccccc2)C1=O (stereo unspecified)	> 200 µM	33.9 µM	
O=c1[nH]c(O)c(/C=N/C(=S)N=Nc2c(O)[nH]c3ccccc23)c(=O)[nH]1	> 200 µM	> 200 µM	
O=C(O)CN(CC(=O)O)C1CCCCC1N1CC(=O)OC(=O)C1 (stereo unspecified)	> 200 µM	18.2 µM	
O=[N+]([O-])c1ccc(NC(c2ccccc2)P(=O)(Oc2ccccc2)Oc2ccccc2)cc1 (stereo unspecified)	> 5.89 µM	> 5.89 µM	
CCOP(=O)(OCC)/C(C#N)=C/c1ccc(Cl)cc1	> 316 µM	195 µM	
O=c1[nH]nc(-c2ccc3ccccc3c2)[nH]1	135 µM	> 200 µM	
CCCCNc1nc2ccccc2c2c1ncn2CC(C)C	> 200 µM	20 µM	
O=c1c(O)c(-c2ccc3c(c2)OCO3)oc2c(Cl)cc(Cl)cc12	> 100 µM	> 100 µM	
CCOP(=O)(OCC)C1CC(O)C(=O)N1 (stereo unspecified)	> 200 µM	> 200 µM	
CSc1ncnc2c1ncn2CCC(=O)OC(C)(C)C	> 200 µM	> 200 µM	
CC[P+](CC)(c1ccccc1)c1ccccc1	> 676 µM	95.5 µM	
O=P(O)(O)C1CCCC(P(=O)(O)O)N1 (stereo unspecified)			inactive

Compound	EC50	IC50	outcome
CN1CCN=C1c1nnn(-c2ccc([N+](=O)[O-])cc2)c1-c1ccccc1	57.5 µM	145 µM	
CCO/C(Cc1ccc(Cl)cc1)=N/NC(N)=S	> 200 µM	95.5 µM	
N#Cc1cccc(/C=C(/C(=O)c2ccccc2)c2ccccc2)c1	> 17 µM	9.55 µM	
Clc1ccc2c(c1)Sc1ccc(Cl)cc1S2	> 200 µM	> 200 µM	
CCOC(=O)C1N(S(=O)(=O)c2ccc(C)cc2)CCC12c1ccccc1N(C(C)=O)C2C(/C=C/C(=O)OC)=C/C(=O)OC (stereo unspecified)			inactive
Cc1cn(C2CC(O[Si](C)(C)C(C)(C)C)C(/C=[N+](\C)[O-])O2)c(=O)[nH]c1=O (stereo unspecified)	> 200 µM	37.2 µM	
COC(=O)C1CC(C=[N+](C)C)=C(SC)N1 (stereo unspecified)	> 200 µM	> 200 µM	
CCCCc1cc(=O)oc2c3c(c4c(c12)OC(C)(C)C=C4)O[C@H](C)[C@@H](C)[C@H]3O	> 63.1 µM	15.5 µM	
COc1ccccc1C(=O)[O][Sn]([c]1ccccc1)([c]1ccccc1)[c]1ccccc1	> 2 µM	0.219 µM	
COc1ccc(C2=NOP(c3ccccc3)(c3ccccc3)(c3ccccc3)C2)cc1	> 105 µM	0.661 µM	
O=c1[nH]c(Nc2cccc(CO)c2)nc2nc[nH]c12	> 200 µM	> 200 µM	
O=C1c2ccccc2-n2c1nc1ccccc1c2=O	> 200 µM	52.5 µM	
CC(=O)Nc1ccc(C2=N/C(=C\c3ccc(Cl)c(Cl)c3)C(=O)O2)cc1	> 7.24 µM	> 7.24 µM	
O=c1c2cc([N+](=O)[O-])ccc2oc2ccc([N+](=O)[O-])cc12	> 13.2 µM	> 13.2 µM	
CC(Cc1ccccc1)NC1=NCCO1 (stereo unspecified)	> 200 µM	145 µM	
Nc1ccc2nc3n(c2c1)C(c1c(F)cccc1F)SC3 (stereo unspecified)	> 200 µM	126 µM	
OCCNc1nnc(NCCO)c2[nH]cnc12			inactive
CCOP(=S)(OCC)OC(=O)C(C)SSC (stereo unspecified) (tested in a mixture with another compound)	> 200 µM	95.5 µM	
CC(=O)Oc1ccc2c(-c3ccccc3)c(Oc3ccc(Cl)cc3)c(=O)oc2c1	> 200 µM	15.8 µM	
N#C/C(=C1\SC(N=Nc2ccc(Cl)cc2)C(=O)N1c1ccccc1)c1nc2ccccc2[nH]1 (stereo unspecified)	> 3.8 µM	> 3.8 µM	
CC(=O)N(C)C(c1ccccc1)(c1ccccc1)c1ccccc1	> 200 µM	35.5 µM	
O=C(c1ccccc1)N1CCN2CCN=C(c3ccccc3)C21c1ccccc1 (stereo unspecified)	> 132 µM	> 132 µM	
N[C@H](CSSC[C@@H](N)C(=O)Nc1ccc2ccccc2c1)C(=O)Nc1ccc2ccccc2c1	> 200 µM	2.75 µM and 3.55 µM	

Compound	EC50	IC50	outcome
O=C1/C(=N\O)c2ccccc2S1(=O)=O			inactive
CCc1ccccc1NC(=O)Nc1cc(C)ccn1	> 200 µM	24 µM	
O=C1CCC2(c3ccc(Cl)cc3)Nc3ncncc3N12 (stereo unspecified)	> 871 µM	178 µM	
O=c1sccc2ccccc12	> 417 µM	> 417 µM	
O=c1c2c([nH]n1-c1ccccc1)-c1ccccc1CS2	> 204 µM	135 µM	
[Cu+2].[NH-]c1ccccc1C(=O)O.[NH-]c1ccccc1C(=O)O	> 200 µM	17.4 µM	
[N-]=[N+]=Nc1ccc(SSCCC(=O)ON2C(=O)CCC2=O)cc1	> 200 µM	7.59 µM	
COc1ccc(Nc2nc3c(N)cc(C(F)(F)F)cc3nc2-c2ccccc2)cc1	> 12.6 µM	> 12.6 µM	
CSc1nc(N)c2c(-c3ccccc3)c3c(nc2n1)CCCC3	> 200 µM	> 200 µM	
CCCCCCCCCCOc1cc2c(=O)c(C(=O)OCC)c[nH]c2cc1OCC	> 200 µM	> 200 µM	
Cc1n[nH]c(=O)n1/N=C/c1ccc([N+](=O)[O-])cc1	> 200 µM	> 100 µM	
CSc1nc2c(N)ncnc2n1C	> 200 µM	> 200 µM	
c1ccc(C[P+]2(c3ccccc3)c3ccccc3-c3ccccc32)cc1	> 200 µM	> 200 µM	
CCOC(=O)/N=N\C(=O)OCC	> 200 µM	> 200 µM	
O=C(O)c1cnc2[nH]ccn2c1=O	> 200 µM	> 200 µM	
OCCN(CCO)c1ncnc2c1sc(=S)n2-c1ccccc1	> 724 µM	282 µM	
CCC(=O)CCCC=C(c1cc(Cl)c(OC)c(CO)c1)c1cc(Cl)c(OC)c(CO)c1	> 200 µM	14.1 µM	
Oc1cc(O)c2ccc(-c3ccc(O)c(O)c3)[o+]c2c1	> 200 µM	12.3 µM	
CCOc1ccc(Nc2ccc(N=Nc3c(N)c(C)cc(N=Nc4ccc(-c5ccc(N=Nc6ccc(O)c(C(=O)O)c6)cc5)cc4)c3N)cc2S(=O)(=O)O)cc1	10.7 µM	79.4 µM	
N#CCCN(CCC#N)c1ccc(/C=C2\N=C(c3cc([N+](=O)[O-])ccc3Cl)OC2=O)cc1	> 2.34 µM	0.575 µM	
CS(=O)(=O)N1CC(CCl)c2ccc(S)cc21 (stereo unspecified)			inactive
NNC(=O)N/N=C1/C(=O)N(c2ccc(Cl)c(Cl)c2)C(=O)C(=O)C1c1nc2ccccc2o1 (stereo unspecified)			inactive
COc1cc2c(cc1O)C1Cc3cc(OC)c(OC)cc3C(C2)N1C (stereo unspecified)	> 39.8 µM	> 39.8 µM	

Compound	EC50	IC50	outcome
O=Nc1ccccc1C(=O)O	> 151 µM	47.9 µM	
NCCCCC(N)C(=O)NCCNc1ccc(NCCNC(=O)C(N)CCCCN)c2c1C(=O)c1ccccc1C2=O (stereo unspecified)	> 100 µM	3.39 µM	
O=C(Nc1cccc(Cl)c1)Nc1ccc[nH]c1=O	> 490 µM	25.1 µM	
C/C=C/C(CC(O)(C(F)(F)F)C(F)(F)F)=N/NC(N)=S	> 200 µM	> 200 µM	
COc1ccc(Nc2nc3c([nH]2)c(=O)n(C)c(=O)n3C)cc1	> 200 µM	> 200 µM	
OCCN(CCO)CCCNc1ccnc2cc(Cl)ccc12	> 200 µM	18.2 µM	
Nc1ccn(CC(=O)NCCO)c(=O)n1	> 200 µM	> 200 µM	
NC(=O)c1c[se]c(C2OC(COP(=O)(O)CP(=O)(O)OCC3OC(n4cnc5c(N)ncnc54)C(O)C3O)C(O)C2O)n1 (stereo unspecified)	> 100 µM	16.6 µM	
Cc1ccc(S(=O)(=O)c2ccccn2)cc1	132 µM	380 µM	
NC(C(=O)O)C1=CCCCCC1 (stereo unspecified)	> 200 µM	> 200 µM	
CC1=NNC(=O)C1C1(C(=O)O)CC(c2c[nH]c3ccccc23)=NC(=S)N1 (stereo unspecified)	> 100 µM	69.2 µM	
CCCCOc1cccc(/C=N/N=C(/N)NO)c1			inactive
O=[N+]([O-])c1cccc(C2CC(c3ccccc3)=Nc3ccccc3S2)c1 (stereo unspecified)	> 35.5 µM	2.34 µM	
CCCCCCCCCC(=O)OC1CN2CC[C@H](O)C2C(O)[C@@H]1O (stereo partly specified)			inactive
O=C(O)[C@@H]1C2C3CC4C2C4C3[C@@H]1C(=O)O			inactive
CCOC(=O)c1nc2ccc(C(F)(F)F)cc2nc1NCc1ccc(OC)cc1	> 200 µM	38 µM	
O=C1C2=Cc3ccccc3OC2(O)Oc2cc(O)cc(O)c21 (stereo unspecified)	> 200 µM	91.2 µM	
O=C(O)CCSSCCC(=O)O	> 200 µM	> 200 µM	
CC1(C)C[C@H]2[C@H](O)C(CO)=C3CC(O)C3(C)[C@H]2C1 (stereo partly specified)	> 141 µM	66.1 µM	
O=C1OC(c2ccccc2)=N/C1=C\c1ccc(Br)cc1	> 4.37 µM	> 4.37 µM	
Cc1ccc(NC(=O)CCC(CC(=O)C(C)(C)C)=NNC(=O)C(=O)NN)cc1C	> 3.63 µM	2.57 µM	
